Source: ChEMBL document CHEMBL3507680, “University of Dundee, Gates Library screen for HepG2 cell viability”

Experiment: Human HepG2 cell viability assay in 384 well format
Type: toxicity, cell-based
Set-up: dose 125 nL, time 70.5 hour; cytotoxicity at 70.5 h: concentration not given beside the values
Conditions: HepG2 cells, read-out: Inhibition

Row | Compound | cytotoxicity at 70.5 h
1 | Cc1cc(F)cc(S(=O)(=O)NCCCN2CCC(O)CC2)c1 | 11.3%
2 | CC(C)N1CCCC(Cc2nccnc2Cl)CC1 (stereo not drawn) | 0.246%
3 | Cc1ccc(C(C(=O)NCCc2nc(C)cc(=O)[nH]2)N(C)C)cc1 (stereo not drawn) | 7.05%
4 | O=C(Cn1nc2ccccc2n1)N1CCCn2cncc2C1 | -8.74%
5 | Cc1nc(CN2CCOCC2c2[nH]ncc2C)cs1 (stereo not drawn) | 1.5%
6 | CN(Cc1ncc(C(C)(C)C)o1)CC1CCCN1c1cccnn1 (stereo not drawn) | 23.4%
7 | Cc1ccc(CNC(=O)c2ccc(=O)n(C)n2)c(OC2CCCC2)c1 | -5.94%
8 | Cc1nc(C)n(CC2CN(CCCOc3ccccc3)CCO2)n1 (stereo not drawn) | -2.14%
9 | CN(Cc1ccncc1)Cc1cnn(-c2ccc(F)cc2)c1 | -13.3%
10 | CC(C)C(=O)N(C)Cc1nnc2n1CCCCC2 | 25%
11 | CCOc1ccc(Cl)c(C(=O)N2CCCSCC2)n1 | -10.6%
12 | Cc1csc([C@@H]2C[C@@H]3CCN(C(=O)c4cccn4C)C[C@H]3O2)n1 | 9.1%
13 | CC1(C(=O)N2CCOCC2)CNCCO1 (stereo not drawn) | -7.18%
14 | CNC(=O)[C@@H]1C[C@@H](NC(=O)Cc2cccs2)CN1C1CCOCC1 | -3.22%
15 | COCc1n[nH]c2c1CN(Cc1ccccn1)C2 | -9.17%
16 | CNC(=O)C1CCCCN1C(=O)c1sc(-c2ccc(C)o2)nc1C (stereo not drawn) | 3.27%
17 | CNc1ncc(CN(C)C(=O)[C@@]23CNC[C@@H]2CN(C(=O)C2CC2)C3)cn1 | -7.16%
18 | COc1ccc(C2CCCN2C(=O)c2cc(C(C)C)on2)cc1 (stereo not drawn) | -9.05%
19 | CC(=O)N1CCCc2cc(Nc3nccn(C)c3=O)ccc21 | -7.29%
20 | CN1CC2(CCN(S(=O)(=O)C3CC3)CC2)c2ccccc21 | 11%
21 | CN(Cc1ccco1)C1CCC12CCN(C(=O)c1ccnnc1)CC2 (stereo not drawn) | 5.1%
22 | Cc1ccccc1CC(=O)N1C[C@@H](O)[C@H](N2CCC(F)(F)CC2)C1 | -7.85%
23 | CCOc1ccc(Cl)cc1C1CCCCN1 (stereo not drawn) | -17.3%

Row | Compound | cytotoxicity at 70.5 h
24 | Cc1ccc(N(CC(=O)c2ccc(Br)cc2)C2=NCCCCC2)cc1 | 16.7%
25 | CCCC(C)N(C)Cc1nnc(-c2ccco2)o1 (stereo not drawn) | 1.45%
26 | CC(C)CCNC(=O)CNC(=O)N1CCc2c([nH]c3ccc(Cl)cc23)C1 | -19.7%
27 | Cc1cc(-c2nccs2)nc(C2CCN(Cc3cccs3)CC2)n1 | -5.42%
28 | Cc1cnn(CCNCc2nnc(-c3ccccc3)o2)c1 | -1.2%
29 | COc1ccc(CNC(=O)NC2CCN(CC3CCCC3)CC2)cn1 | -9.34%
30 | CC(=O)Nc1cccc2c1ccn2CC(=O)Nc1ncc[nH]1 | -5.41%
31 | CSc1nc2ccsc2c(=O)n1CC(=O)N(C)c1ccccc1 | -4.9%
32 | O=C(O)c1nnn(Cc2cccc(C(F)(F)F)c2)c1-c1cccnc1 | -30.6%
33 | O=C(Nc1cnn(CCN2CCOCC2)c1)c1cc(F)ccc1F | -2.44%
34 | CCO[C@@H]1CC[C@H]2[C@H]1OCCN2C(=O)c1ccc(OC)c(F)c1 | -4.73%
35 | CN(CCOc1cccc(S(C)(=O)=O)c1)CC(F)F | -10.4%
36 | CC(C)N1CCC(N(C)c2ccnc(N(C)C)n2)CC1 | -2.26%
37 | O=C(CN1C(=O)c2ccccc2CS1(=O)=O)c1ccccc1 | -6.1%
38 | O=C1C[C@H]2[C@@H](CCN2Cc2ccccn2)N1Cc1cccnc1 | -6.81%
39 | CN1C(=O)c2cccc(NC(=O)c3cccc(S(C)(=O)=O)c3)c2C1=O | -4.72%
40 | CCc1ccc(C2CC(=O)Nc3c2c(=O)n(C)c2ncnn32)cc1 (stereo not drawn) | -2.98%
41 | CC(=O)c1cccc(OCCCC(=O)N(C)Cc2ccccn2)c1 | -2.88%
42 | O=C(C1CC(c2ccccc2)=NO1)N1CCc2ccccc21 (stereo not drawn) | 28.5%
43 | COC(=O)c1ccc2ccn(CC3CCCN(C)C3)c(=O)c2c1 (stereo not drawn) | 25.4%
44 | CC(C)C(C)(C#N)NC(=O)Cn1nnc(-c2cc3ccccc3o2)n1 (stereo not drawn) | 18.2%
45 | O=C1CO[C@@H]2CN(C3CCOCC3)C[C@H]2N1Cc1ccncc1 | 4.06%
46 | CC(C)N1CCN(CCn2cnc3c(F)cccc3c2=O)CC1 | -2.82%

Row | Compound | cytotoxicity at 70.5 h
47 | Cc1nn(C)c2c(N(C)Cc3cccs3)nc(C3CC3)nc12 | 22.5%
48 | CN(C)c1nc2c(c(N3CCC4(CCCNC4=O)C3)n1)CCCC2 (stereo not drawn) | 8.69%
49 | O=C(Nc1nnc(N2CCCCC2)[nH]1)c1cccs1 | -0.727%
50 | CCN1CCN(c2ncc3c(=O)n(Cc4ccco4)ccc3n2)CC1 | -5.38%
51 | CCOCC(O)CN1CCN(C(=O)Cc2ccc3c(c2)CCC3)CC1 (stereo not drawn) | 53.8%
52 | CCN(C)c1ncnc2c1CCN(S(=O)(=O)c1ccccc1)CC2 | -5.89%
53 | Oc1ccc(Cl)cc1CNCc1ccccc1Cl | -8.63%
54 | CN(Cc1ncc[nH]1)S(=O)(=O)c1cccc(C(=O)N2CCOCC2)c1 | -2.7%
55 | O=C(N[C@@H]1CN(Cc2c[nH]nc2-c2ccccc2)C[C@H]1O)c1cc[nH]n1 | -9.21%
56 | COc1ccc([C@@H]2CN(c3cc(OC)ncn3)C[C@H]2N(C)C)cc1 | 22.1%
57 | Cc1ccc(C(=O)N2CCCC2c2nnc3n2CCCCC3)s1 (stereo not drawn) | 8.9%
58 | c1ccc(Cn2cc(CNC3CCc4ncnn4C3)cn2)cc1 (stereo not drawn) | -7.61%
59 | Cc1nn(Cc2ccc(F)cc2)c2[nH]nc(N)c12 | -9.36%
60 | Cc1ccc(NCc2nc3n(n2)CCCCC3)c(C)c1 | 6.51%
61 | CC(C)(C#N)C(=O)Nc1nccn1Cc1ccc(Br)cc1 | 11.2%
62 | Cc1n[nH]c(C)c1C1COCCN1C(=O)c1cc(F)ccc1F (stereo not drawn) | -8.76%
63 | CCn1cc(CNC(=O)C2CCCC2)cn1 | -17.8%
64 | CC(C)OCc1ccccc1CNC(=O)C(C)S(=O)(=O)C(C)C (stereo not drawn) | -5.26%
65 | O=C(Cn1cc(I)cn1)N1CCOCC1 | -3.24%
66 | COc1cc(C)c(CNC(C)c2csc(C)n2)cc1OC (stereo not drawn) | -2.42%
67 | COc1ccc2c(c1)OCC(CNC(=O)c1ccc3[nH]nnc3c1)C2 (stereo not drawn) | -9.44%
68 | CCCOCC1CCN(C(=O)c2cnc(-c3csc(C)n3)nc2O)C1 (stereo not drawn) | -8.59%
69 | O=C(NCC1CCCO1)c1c(-n2cnnn2)sc2c1CCC2 (stereo not drawn) | -18.6%

Row | Compound | cytotoxicity at 70.5 h
70 | CC(=O)N1CC(=O)N(c2cnn(C)c2)CC12CCN(Cc1ccsc1)C2 (stereo not drawn) | 21.7%
71 | Cc1cccc(-c2noc(CN3CCCC3Cn3cccn3)n2)c1 (stereo not drawn) | 8.86%
72 | CCn1nccc1CNC(=O)C1CCCO1 (stereo not drawn) | 0.767%
73 | O=C(O)c1cc2c(nc1-c1ccoc1)CCN(Cc1ccco1)CC2 | -14.2%
74 | CCCOCCOC(=O)c1ccc2c(c1)[nH]c(=O)n2C | 11.7%
75 | CCn1nc(C)c2ncnc(N(C)Cc3ccco3)c21 | -1.38%
76 | CC(=O)N1CCCC1c1nccnc1Nc1ncccn1 (stereo not drawn) | 15.9%
77 | CCc1nc(C(=O)N2CC(C)CN(C)c3ccccc32)c[nH]1 (stereo not drawn) | -2.27%
78 | NC(=O)c1ccc(NC(=O)Cn2cc(I)cn2)cc1 | -13.1%
79 | CC(NC1(CNS(=O)(=O)N(C)C)CCCC1)c1ccccc1 (stereo not drawn) | -13.2%
80 | NC(=O)[C@@H]1CCCN1C(=O)c1csc(-c2ccc(C(F)(F)F)cc2)n1 | 20.6%
81 | Cc1cc(=O)[nH]c(=O)n1COCc1ccccc1 | -18.6%
82 | COc1c(C(=O)NCc2cccnc2)nnn1Cc1ccccc1 | -7.04%
83 | O=C(C1CCOCC1)N1CC[C@@H]2[C@H]1CCC(=O)N2c1ccccc1 | 13.7%
84 | Cc1ccc(C(=O)N2CCO[C@H]3[C@H](OCCN(C)C)CC[C@@H]32)o1 | -4.42%
85 | O=C(O)Cc1cnc(-c2c(Cl)cccc2Cl)s1 | -12.9%
86 | CC(C)OCc1nn(C)c2c1CN(Cc1cccs1)CC2 | -2.74%
87 | COCCN1C(=O)[C@H]2CC[C@@H]1CN(S(=O)(=O)c1cccc(Cl)c1)C2 | 17.8%
88 | Cc1ncc(Cl)c(C(=O)N2CC(=O)N(C)c3ccccc32)n1 | -9.43%
89 | CC(=O)NCc1nc(CCOc2ccc(Cl)cc2)no1 | -4.84%
90 | O=C(Cn1ccnc1)N1C[C@@H]2CC[C@H](Oc3ccccc3F)[C@@H]2C1 | 10.9%
91 | CCN1CC2(CC1=O)CN(C(C)=O)CCN(C(=O)NC(C)C)C2 (stereo not drawn) | -8.93%
92 | CC1(C)OCC2(CO1)CN(C(=O)c1cccc3ccccc13)C2 | -8.48%

Row | Compound | cytotoxicity at 70.5 h
93 | CC(=O)N1CCN(C(C)c2nnc(CC(C)C)o2)CC1 (stereo not drawn) | -4.1%
94 | O=S(=O)(c1cccnc1)N1CCN(CCn2ccnc2)CC1 | -0.387%
95 | CC(=O)NCc1cc2n(n1)CCN(Cc1cccc(CCN)c1)C2 | -2.57%
96 | CN(C)[C@@H]1CCN(C(=O)c2cccc(C#N)c2)[C@H]1Cc1cnn(C)c1 | -8.57%
97 | Cc1nc(C2CCCN(C(=O)C3=NN(C(C)C)C(=O)CC3)C2)no1 (stereo not drawn) | -9.12%
98 | CCN(CC)c1ccc(C(=O)N2C[C@@H]3CC[C@H](C2)N(CCOC)C3)cc1 | 23.2%
99 | CN(C)CC1CN(Cc2ccsc2)Cc2nccn2C1 (stereo not drawn) | -0.272%
100 | CC(C)c1cncnc1-c1cc(F)cc2c1OC(CN)C2 (stereo not drawn) | -1.8%
101 | O=C(Nc1cccc(OCc2cccc(F)c2)c1)C1COCCO1 (stereo not drawn) | -0.586%
102 | Cc1cc(CNCC2(O)CCOCC2)ccc1F | -0.741%
103 | Cc1ncsc1C(=O)NCCNc1cnccn1 | -3.47%
104 | CC(C)(C)OC(=O)N1CCCN1C(=O)c1cccc(F)c1F | -5.84%
105 | CN1CCCN(c2nccc(-c3cncnc3C3CCCCC3)n2)CC1 | 20.6%
106 | O=C(N[C@@H]1CCN(C(=O)c2cc[nH]c2)C[C@H]1O)c1ccccn1 | -0.892%
107 | CCCn1[nH]cc/c1=N\C(=O)CN1CCn2c(nnc2C2CC2)C1 | 8.11%
108 | CN1CCN(Cc2ccccc2CNC(=O)c2ccc(Cl)cc2F)CC1 | 3.69%
109 | CNC(=O)c1cccnc1NCc1ccc(Cn2cccn2)cc1 | -3.1%
110 | Cc1n[nH]c(C)c1CCC(=O)N1CCC(O)(CN2CCN(C)CC2)C1 (stereo not drawn) | -6.92%
111 | O=C(CC1CC1)N1CCC2(COCc3cnc(-c4cccnc4)nc32)C1 (stereo not drawn) | -2.06%
112 | Cn1cnnc1CC1CCN(Cc2c(Cl)cncc2Cl)CC1 | 16.9%
113 | COc1cccc(CN2CCC3(COCc4cnc(N(C)C)nc43)C2)c1 (stereo not drawn) | 1.22%
